Tests used:
mutant CRM1-Cys528Ser = target: T1, mutant CRM1-Cys528Ser (Homo sapiens, UniProt O14980, C528S); test: Cys 528 mutation assay, Rev-GFP localization; format: cell-based; details: 30 μM, U2OS Rev-GFP cells
T1 construct: expressed in transfected cells; host or cells: U2OS (osteosarcoma) cells stably expressing Rev-GFP
Protocol: (§1) U2OS (osteosarcoma) cells stably expressing GFP-tagged HIV-Rev fused to the cAMP-dependent protein kinase inhibitor (PM) nuclear export signal (Rev-GFP) were transiently transfected with constructs expressing wild-type CRM1 or mutant CRM1-Cys528Ser for 36 hours. The transient transfection efficiency in the experiment was estimated to be 50%.

wild-type CRM1 = target: T2, wild-type CRM1 (Homo sapiens, UniProt O14980); test: Cys 528 mutation assay, Rev-GFP localization; format: cell-based; details: 30 μM, 4 hours, U2OS Rev-GFP cells
T2 construct: expressed in transfected cells; host or cells: U2OS (osteosarcoma) cells stably expressing Rev-GFP
T2 sequence (O14980 whole entry, species assumed): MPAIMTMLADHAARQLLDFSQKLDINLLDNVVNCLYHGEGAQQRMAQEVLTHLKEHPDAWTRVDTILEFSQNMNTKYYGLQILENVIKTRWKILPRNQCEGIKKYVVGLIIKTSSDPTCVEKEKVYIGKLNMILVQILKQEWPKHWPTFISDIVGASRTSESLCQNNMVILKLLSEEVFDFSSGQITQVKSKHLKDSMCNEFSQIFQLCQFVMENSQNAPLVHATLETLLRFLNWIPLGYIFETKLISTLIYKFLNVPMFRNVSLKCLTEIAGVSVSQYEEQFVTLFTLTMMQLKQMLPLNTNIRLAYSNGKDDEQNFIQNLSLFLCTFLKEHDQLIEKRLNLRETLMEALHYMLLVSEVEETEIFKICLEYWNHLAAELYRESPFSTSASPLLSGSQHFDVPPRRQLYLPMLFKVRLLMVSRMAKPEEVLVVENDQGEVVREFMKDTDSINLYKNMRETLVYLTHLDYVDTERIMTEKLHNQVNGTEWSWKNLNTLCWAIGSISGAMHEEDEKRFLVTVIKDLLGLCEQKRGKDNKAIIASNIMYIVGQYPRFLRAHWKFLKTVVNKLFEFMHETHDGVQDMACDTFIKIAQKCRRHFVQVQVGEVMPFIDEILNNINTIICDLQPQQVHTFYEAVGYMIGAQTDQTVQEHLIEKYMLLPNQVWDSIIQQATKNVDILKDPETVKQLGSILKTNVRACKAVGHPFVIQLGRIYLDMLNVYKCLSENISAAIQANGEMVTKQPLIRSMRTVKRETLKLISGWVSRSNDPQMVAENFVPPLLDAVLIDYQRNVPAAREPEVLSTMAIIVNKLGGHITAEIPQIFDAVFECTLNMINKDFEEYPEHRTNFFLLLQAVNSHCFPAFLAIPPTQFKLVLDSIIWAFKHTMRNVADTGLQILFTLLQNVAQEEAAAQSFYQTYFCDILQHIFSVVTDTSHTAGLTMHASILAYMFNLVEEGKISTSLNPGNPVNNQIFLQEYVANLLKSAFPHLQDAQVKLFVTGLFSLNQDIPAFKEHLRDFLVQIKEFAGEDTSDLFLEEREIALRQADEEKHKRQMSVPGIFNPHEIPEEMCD
Protocol: as §1

[1] = system: anti-collagen antibody-induced arthritis; test: Collagen antibody-induced arthritis (CAIA) mouse model; format: in vivo
Protocol: On study Day 0 (study commencement), all mice were subjected to a 4 mg intravenous injection of ArthritoMAb™ antibody cocktail (MD Biosciences #51306001), followed by an intraperitoneal injection of LPS (50 μg/mouse) on study Day 3. The mice began treatment on Day 6, when the average clinical scores reached 2.
The animals were examined for signs of arthritis on study Day 0 in all paws (front left and right paws, hind left and right paws). The signs of arthritis on study Day 0 served as a baseline for the arthritis clinical score parameter. Arthritic responses were examined daily from Day 3 until Day 8, and on Days 10, 12, 15 and 18 (study termination).
Clinical signs data are presented as means±SEM (standard error of the mean). Treatment groups 2-3 were compared to vehicle group 1 using one-way ANOVA test followed by Tukey post-test. A p value of <0.05 is considered to represent a significant difference.

MDA-MB-468 xenograft = MDA-MB-468 xenograft model; format: in vivo, mouse; details: 10 mg/kg PO once daily, CB-17 SCID mice, compared to vehicle
Protocol: MDA-MB-468 (ATCC #HTB-102) breast adenocarcinoma cells were obtained from ATCC. These cells were grown in high glucose DMEM medium supplemented with 10% fetal bovine serum, 1% penicillin and streptomycin, and 2 mM L-Glutamine. Cells were sub-cultured by dilution at a ratio of 1:4. MDA-MB-468 cells were harvested by trypsinization and counted using a hemocytometer. Cells were resuspended in PBS at a concentration of 4×10^8 cells per mL. Cells were placed on ice and mixed with an equal volume of Matrigel (BD Biosciences CB-40234). Twenty-two (22) CB-17 SCID mice were inoculated sub-cutaneously in the left flank with 4×10^7 MDA-MB-468 cells. Treatment was initiated when the tumors reached a mean volume of ˜100 mm^3. […] Animals' weights and condition were recorded daily, and tumors were measured on Mondays, Wednesdays, and Fridays.

Hep 3B xenograft = test: Hep3B hepatocellular carcinoma xenograft model; format: in vivo, mouse
Protocol: Hep 3B cells (ATCC #HTB-8064) hepatocellular carcinoma cells were obtained from ATCC. These cells were grown in DMEM medium supplemented with 10% fetal bovine serum, 1% penicillin and streptomycin. Cells were sub-cultured by dilution at a ratio of 1:4. Hep3B cells were harvested by centrifugation and counted using a hemocytometer. Cells were resuspended in PBS at a concentration of 5×10^7 cells per mL. Cells were placed on ice, and then mixed with an equal volume of Matrigel™ (BD Biosciences CB-40234). This mixture was kept on ice and injected into the left flank of mice in a volume of 0.2 mL, equivalent to 5×10^6 cells per mouse. Thirty-two (32) SCID mice were inoculated subcutaneously in the left flank with 5×10^6 Hep 3B cells. Treatment was initiated when the tumors reached a mean volume of 103.7 mm^3 (standard deviation±30 mm^3, range 17-183 mm^3). Mice were allocated to four (4) groups of eight (8) mice such that mean tumor volume in each group was within the range of 95 to 104 mm^3. […] With the exception of doxorubicin (which was given IP), all compounds were given by oral gavage. […] Animal weights and conditions were recorded daily, and tumors were measured on Mondays, Wednesdays and Fridays.

T1 sequence (O14980 whole entry C528S): as the sequence (O14980 whole entry, species assumed) above, with C528S counted along it

NC(=O)/C(=C/n1cnc(-c2cc(C(F)(F)F)cc(C(F)(F)F)c2)n1)c1cncnc1 [Compound 124, (E)-3-(3-(3,5-bis(trifluoromethyl)phenyl)-1H-1,2,4-triazol-1-yl)-2-(pyrimidin-5-yl)acrylamide]
Rev-GFP localization, mutant CRM1-Cys528Ser co-expressed (mutant CRM1-Cys528Ser): did not induce nuclear localization of Rev-GFP
Rev-GFP localization, wild-type CRM1 co-expressed (wild-type CRM1): Rev-GFP was localized to the cell nucleus and nucleolus
percentage of animals that showed clinical signs of arthritis ([1]; 20 mg/kg PO twice a week, study Day 6 (start of treatment)): 78%
percentage of animals that showed clinical signs of arthritis ([1]; 20 mg/kg PO twice a week, study Day 18): 22%
mean clinical score for all paws (arthritis scores) ([1]; 20 mg/kg or 40 mg/kg PO, compared to vehicle): reduced arthritis scores
percentage of animals that showed clinical signs of arthritis ([1]; 40 mg/kg PO twice a week, study Day 6 (start of treatment)): 88%
percentage of animals that showed clinical signs of arthritis ([1]; 40 mg/kg PO twice a week, study Day 18): 13%
mean tumor volume (MDA-MB-468 xenograft): mean tumor volume was reduced
mean tumor volume (Hep 3B xenograft; 5 or 15 mg/kg PO daily, SCID mice, compared to vehicle): mean tumor volume was reduced
mean tumor volume compared with standard of care (Hep 3B xenograft; particularly 15 mg/kg PO daily, versus doxorubicin): compared favorably

— patent US11945794B2, “Nuclear transport modulators and uses thereof” (Karyopharm Therapeutics Inc., priority 2013, dated 2024)
